Key:
human A3AR [1] = biological target: T1, human A3AR (Homo sapiens, UniProt P0DMS8); experiment: NanoBRET kinetic competition association with AV039 as probe in Nluc-A3AR HEK293 cells; format: binding; design: expressed in transfected cells; conditions: for Kinetics RT (probe AV039): reciprocal of koff, NanoBRET competition association with 40 nM AV039, cells; for Kd: read-out: Kinetics pKD (probe AV039) (converted)
T1 sequence (P0DMS8 1-318): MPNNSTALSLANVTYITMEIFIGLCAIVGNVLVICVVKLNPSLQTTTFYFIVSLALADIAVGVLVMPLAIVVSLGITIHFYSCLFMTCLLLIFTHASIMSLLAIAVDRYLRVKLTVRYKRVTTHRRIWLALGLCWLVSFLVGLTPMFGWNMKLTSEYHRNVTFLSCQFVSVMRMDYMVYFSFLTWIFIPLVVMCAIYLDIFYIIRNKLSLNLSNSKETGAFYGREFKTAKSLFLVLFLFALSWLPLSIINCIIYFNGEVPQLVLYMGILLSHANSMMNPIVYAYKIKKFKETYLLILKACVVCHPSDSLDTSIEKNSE
Description: (§1) The binding kinetics of unlabelled ligands was quantified using the competition association assay based on the theoretical framework by Motulsky and Mahan. NanoBRET and radioligand data were fitted into the competition association model using ‘kinetics of competitive binding’ to determine association and dissociation rate constants of the unlabelled compounds:
(§2) k1 and k2 values were generated from association kinetic experiments. k3, k4 and Bmax were then calculated, where k3 represents the kon (M^−1 min^−1) of the unlabelled ligand, k4 stands for the koff (min^−1) of the unlabelled ligand and Bmax equals the total binding (NanoBRET ratio or DPM). The residence time (RT) was calculated as the reciprocal of the ligand dissociation rate constant as follows: RT=1/koff

human A3AR [2] = biological target: T1, human A3AR; experiment: NanoBRET kinetic competition association with XAC-S-ser-S-tyr-X-BY630 as probe in Nluc-A3AR HEK293 cells; format: binding; design: expressed in transfected cells; conditions: for Kinetics RT (probe XAC-S-ser-S-tyr-X-BY630): reciprocal of koff, NanoBRET competition association with 20 nM XAC-S-ser-S-tyr-X-BY630, cells
Description: as §1
The residence time (RT) was calculated as the reciprocal of the ligand dissociation rate constant as follows: RT=1/koff

human A3AR [3] = biological target: T1, human A3AR; experiment: [3H]PSB-11 radioligand association and dissociation in Nluc-A3AR HEK293 membranes; format: binding; design: expressed in transfected cells; conditions: 10 °C
Description: (§3) Prior to all experiments, membranes from HEK293 membranes expressing human Nluc-A3AR were diluted to 20 μg/well in a total volume of 100 μL/well assay buffer (50 mM Tris-HCl, 5 mM MgCl2, supplemented with 0.01% CHAPS and 1 mM EDTA, pH 7.4) and homogenised using an IKA T10 Ultra-Turrax disperser in 3 × 5 s bursts at 15,000 rpm. For equilibrium displacement assays, membranes were placed in 96-well microplates at 10 °C and the required concentration of competing agonist was added in the presence of a final concentration of ~ 10 nM [^3H] […] For association assays, Nluc-A3AR HEK293 membranes were placed at 10 °C in 96-well microplates and the amount of radioligand bound to the receptor was measured at different time points during a total incubation of 120 min. For dissociation experiments, HEK293 membranes expressing human Nluc-A3AR were incubated for 120 min with ~ 10 nM [^3H] […] The competition association assays were initiated by the addition of Nluc-A3AR HEK293 membranes at different time points for a total of 240 min to a total volume of 100 μl/well of assay buffer at 10 °C with ~ 10 nM [^3H] […] For all experiments, incubation was terminated by rapid filtration performed on 96-well GF/B filter plates using a PerkinElmer Filtermate-harvester (PerkinElmer, Groningen, The Netherlands). After drying the filter plate at 50 °C for 30 min, the filter-bound radioactivity was determined by scintillation spectrometry using a 2450 MicroBeta^2 Plate Counter (PerkinElmer, Boston, MA). In addition, the exact concentration of [^3H]
To confirm the differences in the kinetics observed with AV039 and XAC-S-ser-S-tyr-X-BY630, radioligand equilibrium and kinetic binding assays in membranes from HEK293 cells stably expressing Nluc-A3AR were undertaken.

human A3AR [4] = biological target: T1, human A3AR; experiment: [3H]PSB-11 saturation binding (KD used for the Ki calculation); design: expressed in transfected cells; conditions: radioligand, saturation binding assay of this study, read-out: KD, equilibrium dissociation constant of the labelled ligand
human A3AR [5] = biological target: T1, human A3AR; experiment: [3H]PSB-11 radioligand equilibrium displacement in Nluc-A3AR HEK293 membranes; format: binding; design: expressed in transfected cells; conditions: read-out: Equilibrium competition pKi (converted)
Description: Prior to all experiments, membranes from HEK293 membranes expressing human Nluc-A3AR were diluted to 20 μg/well in a total volume of 100 μL/well assay buffer (50 mM Tris-HCl, 5 mM MgCl2, supplemented with 0.01% CHAPS and 1 mM EDTA, pH 7.4) and homogenised using an IKA T10 Ultra-Turrax disperser in 3 × 5 s bursts at 15,000 rpm. For equilibrium displacement assays, membranes were placed in 96-well microplates at 10 °C and the required concentration of competing agonist was added in the presence of a final concentration of ~ 10 nM [^3H] […] For all experiments, incubation was terminated by rapid filtration performed on 96-well GF/B filter plates using a PerkinElmer Filtermate-harvester (PerkinElmer, Groningen, The Netherlands). […] In addition, the exact concentration of [^3H]

human A3AR [6] = biological target: T1, human A3AR; experiment: [3H]PSB-11 radioligand competition association (Motulsky and Mahan) in Nluc-A3AR HEK293 membranes; format: binding; design: expressed in transfected cells; conditions: for Kd: read-out: Kinetics pKD (converted)
Description: as §3, §1
KA=k1L⋅10^−9+k2KB=k3I⋅10^−9+k4S=KA−KB^2+4⋅k1⋅k3⋅L⋅I⋅10^−18KF=0.5KA+KB+SKS=0.5KA+KB−SQ=Bmax⋅k1⋅L⋅10^−9/KF−KSY=Q⋅k4⋅KF−KS/KF⋅KS+k4−KF/KFe^−KF⋅X−k4−KS/KSe^−KS⋅X where k1 is the kon of the labelled ligand (M^−1 min^−1), k2 is the koff of the labelled ligand (min^−1), L is the concentration of the labelled ligand in nanomolar, I is the concentration of the unlabelled competitor (nM), X is the time (min) and Y is the specific binding of the labelled ligand (NanoBRET ratio or DPM).
as §2
This was borne out in the kinetics parameters obtained from fitting the data to the Motulsky and Mahan model (Table 2).

human A3AR [7] = biological target: T1, human A3AR; experiment: NanoBRET equilibrium competition binding with XAC-S-ser-S-tyr-X-BY630 as probe in Nluc-A3AR HEK293 cells; design: expressed in transfected cells
human A3AR [8] = biological target: T1, human A3AR; experiment: NanoBRET equilibrium competition binding with AV039 as probe in Nluc-A3AR HEK293 cells
Description: For saturation and competition binding assays, the required concentration of fluorescent ligand and competing ligand was added simultaneously and incubated for 1 h (for AV039) or 3 h (for XAC-S-ser-S-tyr-X-BY630) at 37 °C (no CO2). After 1 h, 10 μM furimazine was added to each well and the plate incubated for 5 min at 37 °C before reading. […] For association kinetic experiments, following the furimazine incubation, the required concentration of fluorescent ligand in the presence or absence of 10 μM MRS1220 was added simultaneously and the plate read immediately once per minute for up to 3 h at 37 °C. For kinetic competition association assays, after furimazine incubation, either XAC-S-ser-S-tyr-X-BY630 (20 nM) or AV039 (40 nM) were added simultaneously with the required concentration of unlabelled ligand or 10 μM MRS1220 to determine non-specific binding and read once per minute for the indicated times at 37 °C. For all NanoBRET experiments, fluorescence and luminescence were read using a PHERAstar FS plate reader (BMG Labtech, Ortenberg, Germany). Filtered light emissions were measured at 460 nm (80 nm band pass) and at > 610 nm (long pass) for the BY630 labelled ligands and at 450 nm (80 nm band pass) and > 550 nm (long pass) for the BYFL labelled ligand. […]

human A3AR [9] = biological target: T1, human A3AR; experiment: NanoBRET saturation binding of fluorescent antagonists in live Nluc-A3AR HEK293 cells
Description: (§4) For saturation and competition binding assays, the required concentration of fluorescent ligand and competing ligand was added simultaneously and incubated for 1 h (for AV039) or 3 h (for XAC-S-ser-S-tyr-X-BY630) at 37 °C (no CO2). After 1 h, 10 μM furimazine was added to each well and the plate incubated for 5 min at 37 °C before reading. […] For association kinetic experiments, following the furimazine incubation, the required concentration of fluorescent ligand in the presence or absence of 10 μM MRS1220 was added simultaneously and the plate read immediately once per minute for up to 3 h at 37 °C. For kinetic competition association assays, after furimazine incubation, either XAC-S-ser-S-tyr-X-BY630 (20 nM) or AV039 (40 nM) were added simultaneously with the required concentration of unlabelled ligand or 10 μM MRS1220 to determine non-specific binding and read once per minute for the indicated times at 37 °C. For all NanoBRET experiments, fluorescence and luminescence were read using a PHERAstar FS plate reader (BMG Labtech, Ortenberg, Germany). Filtered light emissions were measured at 460 nm (80 nm band pass) and at > 610 nm (long pass) for the BY630 labelled ligands and at 450 nm (80 nm band pass) and > 550 nm (long pass) for the BYFL labelled ligand. The raw NanoBRET ratio was calculated by dividing the fluorescence emission (610 or 550 nm) by the luminescence emission (460 or 450 nm).
NanoBRET total and non-specific saturation binding curves were fitted simultaneously using the following equation: BRET ratio=Bmax.B/B+KD+M.B+C where Bmax is the maximal specific binding achieved, [B] is the concentration of fluorescent ligand, KD is the equilibrium dissociation constant, M is the slope of the non-specific binding component and C is the intercept with the Y-axis.
Initially, we determined the affinity of each of these fluorescent antagonists at NanoLuc tagged A3AR (Nluc-A3AR) in the NanoBRET assay.

human A3AR [10] = biological target: T1, human A3AR; experiment: NanoBRET association kinetics of fluorescent antagonists in live Nluc-A3AR HEK293 cells; conditions: for residence time: read-out: Kinetics RT (residence time); for koff: read-out: Kinetics koff; for kon: read-out: Kinetics kon
Description: as §4
For NanoBRET association kinetic data, non-specific binding was determined in wells with fluorescent ligand plus 10 μM MRS1220 and this was obtained for each concentration of fluorescent ligand at each time point. This was subsequently subtracted from total binding at the equivalent time point. The data were simultaneously fit to the following equations: Y=Ymax1−e^−kobst kon=kobs−koff/L where Ymax equals the level of binding at infinite time (t), kobs is the rate constant for the observed rate of association at a particular concentration of L, [L] is the ligand concentration in molar, koff is the dissociation rate constant of the ligand in per minute and kon is the association rate constant in per molar per minute. From this, the equilibrium dissociation constant (KD) is determined as follows: KD=koff/kon

[11] = association and dissociation curves of 10 nM [3H]PSB-11, Nluc-A3AR HEK293 membranes
[12] = NanoBRET competition association with 40 nM AV039, Nluc-A3AR HEK293 cells, 37 °C
[13] = read-out: Kinetics koff (converted)
[14] = read-out: Kinetics kon (converted)

| Molecule | Kinetics RT (probe AV039) (human A3AR [1]; 37 °C) | Kinetics RT (probe XAC-S-ser-S-tyr-X-BY630) (human A3AR [2]; 37 °C) | Ki (human A3AR [5]) | Kd (human A3AR [6]) | Kd (human A3AR [9]) | Kd (human A3AR [10]) | residence time (human A3AR [10]) | koff (human A3AR [10]) | kon (human A3AR [10]) | koff (human A3AR [6]; [13]) | kon (human A3AR [6]; [14]) | also measured |
| --- | --- | --- | --- | --- | --- | --- | --- | --- | --- | --- | --- | --- |
| CC[C@@H]1CN2C(=O)N(C)c3nc(-c4ccccc4)[nH]c3C2=N1 [PSB-11] | 6.6 ± 1.3 min | 22.4 ± 6.1 min |  |  |  |  |  |  |  |  |  |  |
| [^3H]8-Ethyl-4-methyl-2-phenyl-(8R)-4,5,7,8-tetrahydro-1H-imidazo[2,1-i]-purin-5-one [[^3H]PSB-11] |  |  |  |  |  |  |  |  |  |  |  | Kinetics kon (human A3AR [3]; [11]): 2.75 ± 0.52 × 10^6 M^−1 min^−1; Kinetics pKD (human A3AR [3]; [11]): 8.04 ± 0.08; Kinetics koff (human A3AR [3]; association and dissociation curves of 10 nM [3H]PSB-11, dissociation initiated with 10 μM PSB-11, membranes): 0.000383 ± 3.3e-05 s⁻¹; Kinetics RT (residence time) (human A3AR [3]; reciprocal of koff, 10 nM [3H]PSB-11, Nluc-A3AR HEK293 membranes): 44.6 ± 3.9 min; Kd (human A3AR [4]): 9.9 nM |
| COc1cccc(Cn2c(=O)n(CC3CC3)c(=O)c3c2nc2cc(OC)ccn23)c1 [LUF7565] | 72.9 ± 8.3 min | 49.2 ± 6.7 min | 1.02 nM | 0.776 nM |  |  |  |  |  |  |  | koff (human A3AR [6]; read-out: Kinetics koff): 0.000108 s⁻¹; kon (human A3AR [6]; read-out: Kinetics kon): 136000 M⁻¹ s⁻¹; Kd (human A3AR [1]; [12]): 6.76 nM; koff (human A3AR [1]; read-out: Kinetics koff (probe AV039)): 0.00025 s⁻¹; kon (human A3AR [1]; read-out: Kinetics kon (probe AV039)): 44700 M⁻¹ s⁻¹; Ki (human A3AR [7]): 100 nM; Kd (human A3AR [2]): 13.5 nM; koff (human A3AR [2]; NanoBRET competition association with 20 nM XAC-S-ser-S-tyr-X-BY630, Nluc-A3AR HEK293 cells, 37 °C, read-out: Kinetics koff (probe XAC-S-ser-S-tyr-X-BY630) (converted)): 0.000367 s⁻¹; kon (human A3AR [2]; NanoBRET competition association with 20 nM XAC-S-ser-S-tyr-X-BY630, Nluc-A3AR HEK293 cells, 37 °C, read-out: Kinetics kon (probe XAC-S-ser-S-tyr-X-BY630) (converted)): 26800 M⁻¹ s⁻¹; Ki (human A3AR [8]): 11.7 nM |
| CCCn1c(=O)c2[nH]c(-c3ccc(OCC(=O)NCCNC(=O)[C@H](CO)NC(=O)[C@H](Cc4ccc(O)cc4)NC(=O)CCCCCNC(=O)CCc4ccc5n4[B-](F)(F)[N+]4=C(C)C=C(C)C4=C5)cc3)nc2n(CCC)c1=O [XAC-S-ser-S-tyr-X-BYFL] |  |  |  |  | 16.6 nM | 17.8 nM | 14.9 ± 1.1 min | 0.00115 s⁻¹ | 65800 M⁻¹ s⁻¹ |  |  |  |
| CCCn1c(=O)c2[nH]c(-c3ccc(OCC(=O)NCCNC(=O)[C@H](CO)NC(=O)[C@H](Cc4ccc(O)cc4)NC(=O)CCCCCNC(=O)COc4ccc(/C=C/C5=[N+]6C(=Cc7ccc(-c8cccs8)n7[B-]6(F)F)C=C5)cc4)cc3)nc2n(CCC)c1=O [XAC-S-ser-S-tyr-X-BY630] |  |  | 61.7 nM | 18.2 nM | 3.09 nM | 2.69 nM | 288 ± 62 min | 7.17e-05 s⁻¹ | 27700 M⁻¹ s⁻¹ | 3.83e-05 s⁻¹ | 2330 M⁻¹ s⁻¹ | residence time (human A3AR [6]; read-out: RT (residence time)): > 450 min |
| COc1ccn2c(c1)nc1c2c(=O)[nH]c(=O)n1Cc1ccccc1 [compound 5, 1-Benzyl-8-methoxy-1H,3H-pyrido[2,1-f]purine-2,4-dione] | 1.1 ± 0.4 min | 23.2 ± 3.6 min | 44.7 nM | 29.5 nM |  |  |  |  |  | 0.0033 s⁻¹ | 110000 M⁻¹ s⁻¹ | koff (human A3AR [1]; NanoBRET competition association with 40 nM AV039, Nluc-A3AR HEK293 cells, 37 °C, read-out: Kinetics koff (probe AV039) (converted)): 0.0235 s⁻¹; kon (human A3AR [1]; NanoBRET competition association with 40 nM AV039, Nluc-A3AR HEK293 cells, 37 °C, read-out: Kinetics kon (probe AV039) (converted)): 183000 M⁻¹ s⁻¹; Kd (human A3AR [1]; [12]): 123 nM; Ki (human A3AR [7]): 832 nM; Kd (human A3AR [2]): 288 nM; koff (human A3AR [2]; read-out: Kinetics koff (probe XAC-S-ser-S-tyr-X-BY630)): 0.000783 s⁻¹; kon (human A3AR [2]; read-out: Kinetics kon (probe XAC-S-ser-S-tyr-X-BY630)): 2670 M⁻¹ s⁻¹; Ki (human A3AR [8]): 89.1 nM |
| COc1ccc(-n2nc3c(NC(=O)CCC(=O)NCCOCCOCCNC(=O)CCCCCNC(=O)COc4ccc(/C=C/C5=[N+]6C(=Cc7ccc(-c8cccs8)n7[B-]6(F)F)C=C5)cc4)nc4ccccc4n3c2=O)cc1 [AV039] |  |  | 22.4 nM | 23.4 nM | 7.76 nM | 44.7 nM | 6.8 ± 0.8 min | 0.0025 s⁻¹ | 61200 M⁻¹ s⁻¹ | 0.00127 s⁻¹ | 54500 M⁻¹ s⁻¹ |  |

From PMC6635573, “A live cell NanoBRET binding assay allows the study of ligand-binding kinetics to the adenosine A3 receptor” (Purinergic Signalling, 2019)
